The data set can be described thus: activity coefficient (dimensionless); of the first substance listed, at infinite dilution; xn = mol fraction of the nth substance listed. As to conditions: Liquid, gas stripping method, x1 = 0.

Numbers after ± are expanded uncertainties.

In the case of `CC(F)F` [1,1-difluoroethane] + C=CCO, the activity coefficient reads like this: (249.94 K) 5.09 ± 0.15; (270.06 K) 4.94 ± 0.15; (289.99 K) 4.68 ± 0.14; (309.98 K) 4.39 ± 0.13; (329.99 K) 4.02 ± 0.12.

Take `C=CC=C` [1,3-butadiene] + C=CCO: the activity coefficient is, setting by setting: (250 K) 4.12 ± 0.12; (270.01 K) 4.06 ± 0.12; (289.99 K) 4.02 ± 0.12; (310 K) 3.89 ± 0.12; (329.99 K) 3.59 ± 0.11.

With `C=CCC` [1-butene] + C=CCO, the activity coefficient is, setting by setting: (249.94 K) 6.08 ± 0.18; (270.01 K) 5.85 ± 0.18; (289.99 K) 5.62 ± 0.17; (310 K) 5.35 ± 0.16; (329.99 K) 5.04 ± 0.15.

Regarding `CC(C)C` [2-methylpropane] + C=CCO, the activity coefficient runs as follows: (249.94 K) 10.5 ± 0.3; (270.01 K) 9.51 ± 0.29; (289.99 K) 8.83 ± 0.26; (310 K) 8.11 ± 0.24; (329.99 K) 7.14 ± 0.21.

In the case of `C/C=C/C` [(E)-2-butene] + C=CCO, the activity coefficient worked out at 6.23 ± 0.19 (250 K); 5.85 ± 0.18 (270 K); 5.67 ± 0.17 (289.99 K); 5.38 ± 0.16 (310 K); 4.91 ± 0.15 (329.99 K).

Regarding `C/C=C\C` [(Z)-2-butene] + C=CCO, the activity coefficient reads like this: (249.94 K) 5.53 ± 0.17; (270.06 K) 5.28 ± 0.16; (289.99 K) 5.06 ± 0.15; (309.98 K) 4.85 ± 0.15; (329.99 K) 4.57 ± 0.14.

Consider `CCCC` [butane] + C=CCO, for which the activity coefficient was 9.71 ± 0.29 (249.98 K); 8.84 ± 0.27 (270.01 K); 8.2 ± 0.25 (289.99 K); 7.58 ± 0.23 (310 K); 6.79 ± 0.2 (329.99 K).

Take `CCCl` [chloroethane] + C=CCO: the activity coefficient is, setting by setting: (249.94 K) 3.09 ± 0.09; (270.06 K) 3.07 ± 0.09; (289.99 K) 2.99 ± 0.09; (309.98 K) 2.87 ± 0.09; (329.99 K) 2.69 ± 0.08.

Consider `COC` [dimethyl ether] + C=CCO, for which the activity coefficient turned out to be 1.23 ± 0.04 (249.94 K); 1.22 ± 0.04 (270.06 K); 1.2 ± 0.04 (289.99 K); 1.2 ± 0.04 (309.98 K); 1.16 ± 0.04 (329.99 K).
